# In patent US5177082A, “Huperzines and analogs” (priority 1990, dated 1993):
# Where two headings read alike, the source gives them in different places.
# What was measured:
# [1] = target: T1, pseudocholinesterase (Rattus norvegicus, UniProt Q9JKC1); experiment: biochemical
# T1 construct: 0.1 ml of rat blood serum; from tissue; host or cells: rat blood serum
# Method: (§1) Red blood cell membranes of rats were used as the source for the true cholinesterase with a substrate concentration of 0.3 mM of S-acetylthiocholine iodide. The source for pseudocholinesterase was 0.1 ml of rat blood serum and the substrate was 0.4 mM S-butyrylthiocholine iodide. The Ellman colorimetric method was used to measure the enzyme activity. The percentage of enzyme activity remaining was plotted against negative logarithm (pI) of the drug concentration and the pI50 (the negative logarithm of the gram molecule concentration of the drug required to inhibit the enzyme activity 50%) was derived.
# [2] = target: true cholinesterase (Rattus norvegicus, UniProt P37136); experiment: biochemical; design: Red blood cell membranes of rats; from tissue; host or cells: rat red blood cell membranes
# Method: as §1
# [3] = test system: Sciatic Nerve/Tibialis Muscle Preparation; experiment: Anesthetized rabbit sciatic nerve/tibialis muscle preparation; type: in vivo; settings: rabbits; for minimal effective dose: Oryctolagus cuniculus, iv, read-out: Lowest Effective Dosage for Enhancing Muscle Contraction
# Method: (§2) Anesthesized Rat and Rabbit Sciatic Nerve/Tibialis Muscle Preparation
# (§3) Anesthesia was produced in rats by ip injections of 30 mg/kg of pentobarbital and in rabbits by iv injections of 1 g/kg of urethane. Electric stimulation of the periphery of the sciatic nerve (5-10 V, 0.5 ms, 1 c/10 s) caused tibialis contraction which was recorded on smoked paper.
# [4] = test system: learning functions of rats; experiment: Y maze conditioned reflex test, learning process of rats; settings: 0.08 mg/kg, iv
# From the text: Each animal was required to go through 10 successive shock-free runs to be classified as learned.
# [5] = in vivo; settings: rat, ip
# [6] = test system: In Vitro Rat Nerve/Diaphragm Muscle Contraction; experiment: In vitro phrenic nerve/diaphragm preparations of rats, enhancement of muscle contraction; settings: for EC50: read-out: Enhancement of Muscle Contraction Amplitude, 50% Concentration; for Strength of Effect: relative to Huperzine A = 1.00
# Method: 1. In Vitro Phrenic Nerve/Diaphragm Preparations of Rats.
# After the fast decapitation of a rat, the thoracic cavity was opened and the right diaphragm with attached phrenic nerve was removed. After placing it in a Tyrode's solution (37° C. constant temperature), gassed with 95% oxygen+5% CO2, electrical stimulation (1-10 V, 0.5 ms, 1 c/10 s) of the phrenic nerve was used to produce muscle contraction. A transducer was used to record the contraction amplitude on a panel recorder. […].
# [7] = test system: Sciatic Nerve/Tibialis Muscle Preparation; experiment: Anesthetized rat sciatic nerve/tibialis muscle preparation; type: in vivo; settings: for minimal effective dose: Rattus norvegicus, iv, read-out: Lowest Effective Dosage for Enhancing Muscle Contraction
# Method: as §2, §3
# [8] = in vivo; settings: mouse, ip
# [9] = test system: memory functions of rats; experiment: Memory function of preconditioned rats after 48 hours; type: in vivo, rat; settings: 0.15 mg/kg, after 48 hours
# Method: To evaluate the impact on the memory function, preconditioned animals going through 5 shock-free runs were used as learned animals. After 48 hours the drug-free (control) animals required 14.4±8.9 shocks to become learned.
# [10] = test system: Rats; settings: rat, in vivo
# [11] = test system: Mice; settings: mouse, in vivo
# [12] = test system: patients; experiment: Clinical side effects in patients with myasthenia gravis; type: in vivo, human
# Method: Patients affected with myasthenia gravis (MG) with typical clinical symptoms which improved after using neostigmine were the subjects for testing and verification. […] It was generally used for at least ten days and each dosage was 0.4-0.5 mg. […] The injections were all given in the morning and on the morning prior to the injections anticholinesterase drugs were discontinued. Neither the patients nor the doctors knew which drug was being injected. Later, the symptoms, the duration of the improvements, if any, which were obtained by the drugs and the side effects were recorded. Based on these factors, the relative merits of the two drugs were established.
# [13] = test system: myasthenia gravis; experiment: Double blind cross-over comparison of Huperzine A and neostigmine, 69 cases of myasthenia gravis; type: in vivo, human
# From the text: Patients affected with myasthenia gravis (MG) with typical clinical symptoms which improved after using neostigmine were the subjects for testing and verification. […] The injections were all given in the morning and on the morning prior to the injections anticholinesterase drugs were discontinued. Neither the patients nor the doctors knew which drug was being injected. Later, the symptoms, the duration of the improvements, if any, which were obtained by the drugs and the side effects were recorded.
# (1) Comparison of the maintained times of the effects.
# [14] = test system: TA100; experiment: Mutation test (Ames) TA100 + S9; settings: 1500 μg/container
# [15] = 0.4 mM S-butyrylthiocholine iodide, read-out: Inhibition of Cholinesterase (pI50), Blood serum (converted)
# [16] = 0.3 mM S-acetylthiocholine iodide, read-out: Inhibition of Cholinesterase (pI50), Red Blood Cells (converted)
# [17] = in vitro rat phrenic nerve/diaphragm, 37° C.
# Chain of true cholinesterase (P37136-2 with tags, fused parts or gaps limits assumed): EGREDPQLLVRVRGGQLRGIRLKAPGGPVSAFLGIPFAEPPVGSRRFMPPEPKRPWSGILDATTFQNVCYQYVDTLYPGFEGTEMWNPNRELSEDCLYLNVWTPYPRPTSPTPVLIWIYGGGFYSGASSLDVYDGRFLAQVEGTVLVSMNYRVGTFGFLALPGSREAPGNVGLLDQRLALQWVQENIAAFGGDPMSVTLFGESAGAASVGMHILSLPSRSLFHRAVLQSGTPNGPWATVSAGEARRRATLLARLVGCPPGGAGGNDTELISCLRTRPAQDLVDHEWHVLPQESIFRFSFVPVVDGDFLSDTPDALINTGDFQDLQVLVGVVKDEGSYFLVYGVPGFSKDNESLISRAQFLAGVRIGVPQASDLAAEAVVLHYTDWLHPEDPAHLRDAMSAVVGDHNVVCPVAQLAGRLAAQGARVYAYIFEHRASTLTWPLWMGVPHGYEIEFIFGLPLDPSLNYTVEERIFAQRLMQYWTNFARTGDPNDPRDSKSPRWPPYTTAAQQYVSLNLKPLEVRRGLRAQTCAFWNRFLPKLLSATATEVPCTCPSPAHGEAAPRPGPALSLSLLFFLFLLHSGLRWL
# T1 sequence (Q9JKC1 24-597): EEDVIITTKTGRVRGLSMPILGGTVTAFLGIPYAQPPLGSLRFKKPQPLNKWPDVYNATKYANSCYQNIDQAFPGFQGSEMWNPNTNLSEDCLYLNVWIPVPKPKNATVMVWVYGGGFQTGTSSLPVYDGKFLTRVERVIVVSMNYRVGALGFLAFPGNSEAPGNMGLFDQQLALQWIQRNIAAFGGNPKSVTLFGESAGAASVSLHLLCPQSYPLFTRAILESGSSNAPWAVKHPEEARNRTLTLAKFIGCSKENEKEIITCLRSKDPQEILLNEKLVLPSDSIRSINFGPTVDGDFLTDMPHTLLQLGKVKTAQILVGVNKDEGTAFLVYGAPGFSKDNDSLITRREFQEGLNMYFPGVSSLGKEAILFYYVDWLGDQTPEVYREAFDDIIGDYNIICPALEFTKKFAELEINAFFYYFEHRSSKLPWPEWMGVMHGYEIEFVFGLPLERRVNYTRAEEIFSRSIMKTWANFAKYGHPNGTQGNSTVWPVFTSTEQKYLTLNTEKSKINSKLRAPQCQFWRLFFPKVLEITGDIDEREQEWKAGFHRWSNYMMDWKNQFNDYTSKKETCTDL
compound,measurement,setting,value
"CC1=C[C@H]2Cc3[nH]c(=O)ccc3[C@@]3(C1)[C@@H]2CCCN3C [N-methyl huperzine B, (4aR, 5R, 10bR)-1,2,3,4,4a,5,6,10b-octahydro-1,12-dimethyl-5,10b-propeno-1,7-phenanthrolin-8(7H)-one]",IC50,[1]; [15],316 µM
"C/C=C1\[C@H]2C=C(C)C[C@]1(N(C)C)c1ccc(=O)n(C)c1C2 [N-trimethyl-huperzine A, (5R, 9R, 11E)-11-ethylidene-5,6,9,10-tetrahydro-1,7-dimethyl-5-(dimethylamino)-5,9-methanocycloocta[b]pyridin-2(1H)-one]",IC50,[2]; [16],316 µM
same,"Inhibition of Cholinesterase, Blood serum (concentration found ineffective)",[1],1.1 × 10^-2 M ineffective
"CNC(=O)Oc1ccc2c(c1)[C@]1(C)CCN(C)[C@@H]1N2C [Physostigmine, reference compound]",minimal effective dose,[3],0.12 mg/kg
same,effect on electrically stimulated muscle contraction,[3]; iv (Huperzine A 30 μg/kg),enhanced the rabbit's tibialis muscle contraction amplitude but to a lesser degree than that observed for the rats
same,Strength of Effect,[3]; physostigmine = 1.0,1.0
same,shocks accepted before achieving the learned state (learning),[4],7.9±3.5 shocks
same,LD50,[5],2.4 mg/kg
same,EC50,[6]; [17],0.245 µM
same,Strength of Effect,[6],1.79
same,minimal effective dose,[7]; rats,0.05 mg/kg
same,Strength of Effect,"[7]; rats, physostigmine = 1.0",1.0
same,LD50,[8],0.8 mg/kg
same,shocks required to achieve the learned state (memory),[9],6.4±3.7 shocks
same,Toxic Strength,[10],2.08
same,Toxic Strength,[11],2.25
same,IC50,[1],1.12 µM
"COc1ccc2c3c1O[C@H]1C[C@@H](O)C=C[C@@]31CCN(C)C2 [Galanthamine, reference compound]",minimal effective dose,[3],0.5 mg/kg
same,Strength of Effect,[3]; galanthamine = 1.0,1.0
same,LD50,[5],22.9 mg/kg
same,EC50,[6]; [17],4.2 µM
same,Strength of Effect,[6],0.10
same,minimal effective dose,[7],0.5 mg/kg
same,Strength of Effect,"[7]; rat, in vivo",1.0
same,LD50,[8],13.4 mg/kg
same,Toxic Strength,[10],1.22
same,Toxic Strength,[11],0.13
same,"Inhibition of Cholinesterase (pI50), Blood serum",[1],4.9
"CN(C)C(=O)Oc1cccc([N+](C)(C)C)c1 [Neostigmine, reference compound]",EC50,[6]; Rattus norvegicus,0.272 µM
same,Strength of Effect,[6],1.61
same,"Abdominal pains, %",[12]; control group,7.4%
same,"Abdominal pains, number of times",[12]; control group,26
same,"Blurred vision, %",[12]; control group,9.7%
same,"Blurred vision, number of times",[12]; control group,24
same,"Dizziness, %",[12]; control group,19.5%
same,"Dizziness, number of times",[12]; control group,68
same,"Drooling, %",[12]; control group,1.2%
same,"Drooling, number of times",[12]; control group,11
same,"Increase in the number of bowel movements, %",[12]; control group,2.0%
same,"Increase in the number of bowel movements, number of times",[12]; control group,7
same,"Muscle bundle quivering, %",[12]; control group,8.3%
same,"Muscle bundle quivering, number of times",[12]; control group,29
same,"Myosis, %",[12]; control group,3.4%
same,"Myosis, number of times",[12]; control group,12
same,"Nausea, %",[12]; control group,4.3%
same,"Nausea, number of times",[12]; control group,15
same,"Perspiring, %",[12]; control group,12.1%
same,"Perspiring, number of times",[12]; control group,43
same,"Tinnitus, %",[12]; control group,4.0%
same,"Tinnitus, number of times",[12]; control group,14
same,"Vomiting, %",[12]; control group,1.2%
same,"Vomiting, number of times",[12]; control group,6
same,cases with side effects,"[12]; control patients, 69 cases",34 cases
same,"cases with side effects, %","[12]; control patients, 69 cases, X^2 =3.58, P>0.05",49.27%
same,perspiring and blurred vision vs Huperzine A,"[12]; perspiring X^2 =5.5, P<0.01, blurred vision X^2 =12.96, P<0.001",more noticeably than Hyperzine A caused perspiring and blurred vision
same,"action time of neostigmine longer than Huperzine A, %",[13],8.69%
same,"action time of neostigmine longer than Huperzine A, cases",[13],6 cases
same,IC50,[2]; [16],0.224 µM
same,IC50,[1]; [15],3.55 µM
"C/C=C1\[C@H]2C=C(C)C[C@]1(NC(C)=O)c1ccc(=O)[nH]c1C2 [N-acetyl huperzine A, (5R, 9R, 11E)-5-(acetylamino)-11-ethylidene-5,6,9,10-tetrahydro-7-methyl-5,9-methanocycloocta[b]pyridin-2(1H)-one]",IC50,[2]; [16],> 3160 µM
same,"Inhibition of Cholinesterase, Blood serum (concentration found ineffective)",[1],1.1 × 10^-2 M ineffective
"CC1=C[C@H]2Cc3[nH]c(=O)ccc3[C@]3(C1)NCCC[C@H]23 [Huperzine B, (4aR, 5R, 10bR)-1,2,3,4,4a,5,6,10b-octahydro-12-methyl-5,10b-propeno-1,7-phenanthrolin-8(7H)-one]",EC50,[6]; Rattus norvegicus,4.8 µM
same,Strength of Effect,[6],0.09
same,IC50,[2],0.501 µM
same,IC50,[1],200 µM
O=P1(N(CCCl)CCCl)NCCCO1 (stereo not shown) [Cyclophosphamide],"reverse mutation colonies, TA100 + S9",[14],566 ± 10
Tubocurarine [reference compound],block of electrically induced muscle contraction,"[7]; tubocurarine 0.3 mg/kg iv, species not separated (rats/rabbits)",completely blocked the electrically induced muscle contraction
"CCC1[C@H]2C=C(C)C[C@]1(N)c1ccc(=O)[nH]c1C2 (stereo partly drawn) [11,12-dihydro-huperzine A, (5R, 9R)-5-amino-11-ethyl-5,6,9,10-tetrahydro-7-methyl-5,9-methanocycloocta[b]pyridin-2(1H)-one]",IC50,[2],0.631 µM
same,IC50,[1]; [15],12.6 µM
"CCC1[C@H]2Cc3[nH]c(=O)ccc3[C@@]1(N)CC(C)C2 (stereo partly drawn) [tetrahydro-huperzine A, (5R, 9R)-5-amino-11-ethyl-5,6,7,8,9,10-hexahydro-7-methyl-5,9-methanocycloocta[b]pyridin-2(1H)-one]",IC50,[2]; [16],2.51 µM
same,IC50,[1]; [15],50.1 µM
"C/C=C1\[C@H]2C=C(C)C[C@]1(N(C)C)c1ccc(=O)[nH]c1C2 [N-dimethyl huperzine A, (5R, 9R, 11E)-11-ethylidene-5,6,9,10-tetrahydro-7-methyl-5-(dimethylamino)-5,9-methanocycloocta[b]pyridin-2(1H)-one]",IC50,[2],158 µM
same,"Inhibition of Cholinesterase, Blood serum (concentration found ineffective)",[1]; 0.4 mM S-butyrylthiocholine iodide,1.2 × 10^-2 M ineffective
